Among the test systems are SF-268 CNS; K-562 leukemia; 786-0 renal; OVCAR-5 ovarian; RXF 393 renal; EKVX NSCLC; SK-MEL-5 melanoma; NCI-H522 lung; M14 melanoma; IGROV1 ovarian.
Common to all, as to test: inhibition of tumour cell growth, NCI panel, 48 h

Molecules are shown by their SMILES. Several values for one entry are separate records, joined by “and”; a condition that tells them apart may be missing. Equal values may be shown once.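 Method: 48-hour compound exposure of cells in 96-well plates, five concentrations, linear interpolation of endpoints. GI50: concentration for 50% inhibition of growth. Definition used: TGI = concentration required for complete inhibition of growth.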

With `CCCCCCCCCCCCCC(=O)CBr`, the TGI is 20 µM in the assay on SF-268 CNS; 17.4 µM with K-562 leukemia; 11.3 µM in the assay with 786-0 renal; 49.8 µM in the assay on OVCAR-5 ovarian; 10.5 µM with RXF 393 renal; 39.9 µM in the assay on EKVX NSCLC. The TGI in the assay with SK-MEL-5 melanoma is 26.3 µM; with NCI-H522 lung, 3.85 µM; in the assay with M14 melanoma, 26.6 µM; in the assay on IGROV1 ovarian, 15.1 µM.
On to `O=C1C(Cl)=C(Nc2cccc(O)c2)C(=O)N1c1cc(Cl)c(Cl)cc1Cl`, for which the GI50 was 19.5 µM with SF-268 CNS; 17.4 µM with K-562 leukemia; 16.7 µM with 786-0 renal; 24.2 µM with OVCAR-5 ovarian; 14.9 µM in the assay with RXF 393 renal; 23 µM in the assay with EKVX NSCLC. Moreover, the GI50 is 11 µM in the assay on SK-MEL-5 melanoma, 14.3 µM in the assay with NCI-H522 lung, 20.8 µM in the assay with M14 melanoma and 8.87 µM in the assay with IGROV1 ovarian. In addition, the TGI in the assay on SF-268 CNS was 42.5 µM; in the assay with K-562 leukemia, 40.3 µM; with 786-0 renal, 32.7 µM; in the assay on OVCAR-5 ovarian it was 48.2 µM; in the assay on RXF 393 renal it was 30.6 µM; with EKVX NSCLC, 73.7 µM. The TGI was determined as 23.3 µM with SK-MEL-5 melanoma, 28 µM in the assay with NCI-H522 lung, 40.9 µM with M14 melanoma and 21.2 µM in the assay on IGROV1 ovarian.
For `COc1ccc(-c2cncn2-c2ccc(OC)cc2)cc1`, the GI50 was 21.7 µM in the assay with SF-268 CNS; 10.8 µM in the assay on K-562 leukemia; 21.9 µM in the assay on 786-0 renal; 25.2 µM in the assay with OVCAR-5 ovarian; 0.376 µM in the assay with RXF 393 renal; 4.08 µM with EKVX NSCLC. The GI50 in the assay on SK-MEL-5 melanoma is 17.9 µM; with NCI-H522 lung it was 13.6 µM; in the assay with M14 melanoma, 20.8 µM; with IGROV1 ovarian, 18.7 µM. Moreover, the TGI with SF-268 CNS is 66.2 µM; in the assay on K-562 leukemia, 36.9 µM; in the assay on 786-0 renal, 49.1 µM; in the assay on OVCAR-5 ovarian it was 82.7 µM; with RXF 393 renal it was 9.46 µM; in the assay with EKVX NSCLC it was 27.1 µM. For the same molecule, the TGI turned out to be 33.8 µM in the assay with SK-MEL-5 melanoma, 38.3 µM in the assay on NCI-H522 lung, 46.9 µM in the assay on M14 melanoma and 62.5 µM with IGROV1 ovarian.
On to `O=C(CN1CCN(c2ccccc2)CC1)N1CCc2c([nH]c3ccccc23)C1c1cccnc1` (stereo not drawn), for which the TGI is greater than 100 µM in the assay on SF-268 CNS; greater than 100 µM in the assay on K-562 leukemia; 50.8 µM with 786-0 renal; greater than 100 µM in the assay on OVCAR-5 ovarian; 49.5 µM with RXF 393 renal; greater than 100 µM with EKVX NSCLC. The TGI was greater than 100 µM in the assay on SK-MEL-5 melanoma, greater than 85.7 µM in the assay with NCI-H522 lung, greater than 100 µM in the assay on M14 melanoma and greater than 100 µM in the assay with IGROV1 ovarian.
For `COc1ccc(NC(=O)c2cc(OC)c(OC)c(OC)c2)cc1`, the TGI in the assay with SF-268 CNS is greater than 94.8 µM; in the assay with K-562 leukemia, greater than 100 µM; with 786-0 renal, greater than 100 µM; in the assay with OVCAR-5 ovarian, greater than 100 µM; in the assay on RXF 393 renal, 94.3 µM; in the assay with EKVX NSCLC it was greater than 100 µM. Further, the TGI in the assay with SK-MEL-5 melanoma was greater than 80.6 µM; in the assay on NCI-H522 lung, greater than 87.4 µM; in the assay with M14 melanoma, greater than 100 µM; in the assay on IGROV1 ovarian, greater than 100 µM.
In the case of `CC(C)CC1=[N+]=C(NC#N)N=C(CCC(=O)Nc2ccccc2[N+](=O)[O-])C1`, the TGI in the assay with SF-268 CNS, with K-562 leukemia, with 786-0 renal, in the assay with OVCAR-5 ovarian, in the assay on RXF 393 renal and in the assay on EKVX NSCLC was greater than 100 µM each time. Moreover, the TGI with SK-MEL-5 melanoma, in the assay with NCI-H522 lung, in the assay on M14 melanoma and in the assay with IGROV1 ovarian was greater than 100 µM each time.
For the molecule `Cc1ccc(C(O)c2cnc(C)n2Cc2ccccc2)cc1` (stereo not drawn), the TGI in the assay with SF-268 CNS, with K-562 leukemia, in the assay on 786-0 renal, in the assay with OVCAR-5 ovarian, in the assay on RXF 393 renal and in the assay on EKVX NSCLC was greater than 100 µM in each case. The TGI in the assay on SK-MEL-5 melanoma, in the assay on NCI-H522 lung, in the assay with M14 melanoma and in the assay on IGROV1 ovarian was greater than 100 µM throughout.
In the case of `C=C1C(=O)O[C@H]2[C@H]1CC/C(COC(=O)N1CCC[C@H]1C(=O)Nc1ccc(OC)c(C(N)=O)c1O)=C\CC[C@@]1(C)O[C@@H]21`, the GI50 was 5.63 µM with SF-268 CNS; 2.43 µM in the assay on K-562 leukemia; 2.27 µM with 786-0 renal; 4.41 µM in the assay with OVCAR-5 ovarian; 1.2 µM in the assay on RXF 393 renal; 4 µM in the assay with EKVX NSCLC. Besides, the GI50 is 3.48 µM in the assay on SK-MEL-5 melanoma, 1.68 µM in the assay with NCI-H522 lung, 1.89 µM in the assay with M14 melanoma and 2.82 µM with IGROV1 ovarian. Also, the TGI with SF-268 CNS came out at 24.7 µM; in the assay with K-562 leukemia it was 10.2 µM; in the assay with 786-0 renal, 6.56 µM; in the assay on OVCAR-5 ovarian it was 18.2 µM; in the assay with RXF 393 renal it was 2.79 µM; in the assay with EKVX NSCLC, 32.9 µM. Moreover, the TGI is 14.2 µM in the assay with SK-MEL-5 melanoma, 4.07 µM in the assay with NCI-H522 lung, 4.19 µM in the assay on M14 melanoma and 9.13 µM with IGROV1 ovarian.
Regarding `CC1C(=O)C(C)C(c2ccccc2)N(N=O)C1c1ccccc1` (stereo not drawn), the GI50 with SF-268 CNS is 44 µM; in the assay with RXF 393 renal it was 49.6 µM; in the assay on EKVX NSCLC it was greater than 1000 µM; with NCI-H522 lung, greater than 385 µM; in the assay with IGROV1 ovarian, 216 µM. Moreover, the TGI in the assay on SF-268 CNS was 352 µM; in the assay on K-562 leukemia, greater than 1000 µM; in the assay on 786-0 renal, 359 µM; in the assay on OVCAR-5 ovarian it was greater than 881 µM; with RXF 393 renal, > 68.4 µM and 171 µM; in the assay with EKVX NSCLC it was greater than 1000 µM. In addition, the TGI is greater than 605 µM in the assay with SK-MEL-5 melanoma, greater than 601 µM in the assay with NCI-H522 lung, greater than 581 µM in the assay on M14 melanoma and greater than 673 µM in the assay on IGROV1 ovarian.
As to `CCCCCCCCCCCCCCCCCCCCCC(=O)Nc1ccn(C2OC(CO)C(O)C2O)c(=O)n1` (stereo not drawn), the TGI with SF-268 CNS, in the assay with K-562 leukemia, in the assay with 786-0 renal, in the assay with OVCAR-5 ovarian, with RXF 393 renal and in the assay on EKVX NSCLC was greater than 100 µM each time. Further, the TGI is greater than 100 µM in the assay on SK-MEL-5 melanoma, greater than 100 µM in the assay on NCI-H522 lung, 32.6 µM in the assay with M14 melanoma and greater than 100 µM with IGROV1 ovarian.
For `Cc1cccc(C(C)C)c1NC(=O)C(=O)CC(=O)c1c(C)n([O-])c2ccccc2[n+]1=O`, the TGI in the assay on SF-268 CNS, with K-562 leukemia, in the assay with 786-0 renal, in the assay on OVCAR-5 ovarian, in the assay on RXF 393 renal and in the assay with EKVX NSCLC was greater than 100 µM in each case. Besides, the TGI with SK-MEL-5 melanoma is greater than 100 µM; in the assay with NCI-H522 lung, 53.9 µM; in the assay with M14 melanoma, 95.3 µM; in the assay on IGROV1 ovarian it was greater than 100 µM.
Regarding `OCc1ccc(-c2nn(Cc3ccccc3)c3ccccc23)o1`, the GI50 in the assay on SF-268 CNS was 18.6 µM and 19 µM; with K-562 leukemia it was 10.1 µM and 7.41 µM; in the assay on 786-0 renal it was 24 µM and 4.69 µM; in the assay with OVCAR-5 ovarian, 0.564 µM and 0.0852 µM; in the assay on RXF 393 renal it was 7.94 µM and 14.8 µM; with EKVX NSCLC it was 18.9 µM and 22.9 µM. The GI50 with SK-MEL-5 melanoma is 13.7 µM and 14.2 µM; in the assay on NCI-H522 lung, 12 µM and 20.6 µM; in the assay on M14 melanoma, 21.1 µM and 29.2 µM; with IGROV1 ovarian, 0.508 µM and 0.288 µM. In addition, the TGI in the assay with SF-268 CNS was 65.8 µM and 51.1 µM; in the assay on K-562 leukemia it was 63.2 µM and > 42.3 µM; with 786-0 renal, greater than 81.6 µM; with RXF 393 renal it was 30.7 µM and 38 µM; with EKVX NSCLC, 72.7 µM and 58.9 µM; in the assay on SK-MEL-5 melanoma, 26.7 µM and 27.3 µM. In addition, the TGI in the assay with NCI-H522 lung was 28.2 µM and > 58.7 µM; in the assay with M14 melanoma, 45.6 µM and > 57.8 µM; in the assay with IGROV1 ovarian, 22.5 µM and > 93.1 µM.
For the molecule `CC(=O)O[C@@H]1CC2C(C)(C)CCCC2(C)C2=C1C(=O)C(C(C)C)=CC2=O` (stereo partly drawn), the GI50 with SF-268 CNS was 1.39 µM; in the assay on K-562 leukemia, 1.69 µM; with 786-0 renal, 0.781 µM; in the assay on OVCAR-5 ovarian it was 2.26 µM; in the assay on RXF 393 renal, 0.757 µM; in the assay with EKVX NSCLC, 1.02 µM. Also, the GI50 with SK-MEL-5 melanoma was 0.581 µM; in the assay with NCI-H522 lung it was 1.76 µM; in the assay on M14 melanoma, 0.46 µM; in the assay with IGROV1 ovarian it was 1.49 µM. Further, the TGI in the assay on SF-268 CNS was 38.1 µM; in the assay with K-562 leukemia it was greater than 100 µM; in the assay on 786-0 renal, 6.95 µM; in the assay with OVCAR-5 ovarian, 5.32 µM; in the assay on RXF 393 renal, 2.27 µM; in the assay on EKVX NSCLC, 6.88 µM. Moreover, the TGI in the assay with SK-MEL-5 melanoma is 1.84 µM; with NCI-H522 lung, 3.98 µM; in the assay with M14 melanoma, 2.34 µM; in the assay on IGROV1 ovarian it was 4.87 µM.
As for `CN(C)CCOc1ccc2c(c1)C/C(=C/c1ncc([N+](=O)[O-])n1C)C2=O`, the TGI in the assay on SF-268 CNS was 9.1 µM; in the assay on K-562 leukemia it was greater than 20 µM; in the assay on 786-0 renal it was 26.4 µM; with OVCAR-5 ovarian it was 14.8 µM; in the assay with RXF 393 renal, 3.69 µM; with EKVX NSCLC it was 18 µM. Moreover, the TGI with SK-MEL-5 melanoma was 3.49 µM; with NCI-H522 lung, 3.02 µM; with M14 melanoma it was 5.71 µM; with IGROV1 ovarian, 1.49 µM.
Turning to `COc1ccc(O)c(C#N)c1C#N`, the TGI with SF-268 CNS, in the assay on K-562 leukemia, in the assay on 786-0 renal, with OVCAR-5 ovarian, in the assay on RXF 393 renal and with EKVX NSCLC was greater than 100 µM throughout. For the same molecule, the TGI in the assay with SK-MEL-5 melanoma, in the assay with NCI-H522 lung, in the assay with M14 melanoma and in the assay on IGROV1 ovarian was greater than 100 µM in each case.
Regarding `CN(C)CCCN1CCc2c([nH]c3ccccc23)C1c1cccnc1` (stereo not drawn), the TGI in the assay on K-562 leukemia, in the assay with 786-0 renal, in the assay on OVCAR-5 ovarian, with RXF 393 renal, in the assay on EKVX NSCLC and in the assay on SK-MEL-5 melanoma was greater than 100 µM each time. Besides, the TGI in the assay with NCI-H522 lung, with M14 melanoma and in the assay on IGROV1 ovarian was greater than 100 µM each time.

For the origin of these results see PubChem BioAssay (NCI).
